Measured values from PMC5303205, “Comparative studies on the multi-component pharmacokinetics of Aristolochiae Fructus and honey-fried Aristolochiae Fructus extracts after oral administration in rats” (BMC Complementary and Alternative Medicine, 2017).
Like-named read-outs stand apart in the source and are kept apart here.

What was measured:
[1] = Multi-component pharmacokinetics of AAs in rats after oral administration of AF and HAF extracts (HPLC-MS/MS of plasma); design: species or system Sprague–Dawley (SD) rats; conditions: Sprague-Dawley, rat, in vivo
Procedure: An aliquot (100 μl) of rat plasma was spiked with 10.0 μL IS, and vortexed with 300 μL acetic ether for 10 s before the supernatant was transferred into centrifuge tube. The extraction was repeated with 200 μL acetic ether. The combined organic layer was evaporated to dryness under a gentle stream of nitrogen at RT. The residue was resolved in 100 μL methanol and centrifuged at 15,800 × g for 10 min. The supernatant was used for HPLC-MS/MS analysis.
Chromatographic separation was performed by an Acquity C18 column (4.6 × 100 mm,3.5 μm) (Agilent Technologies, USA). The mobile phase was composed of water (containing 10 mM ammonium formate and formic acid, pH 3.0) (solvent A) and ACN (solvent B). The gradient profile of B was: 0–10 min, 35–38%; 10–11 min, 38– 60%; 11–17 min, 60–35%B; 17–18 min, 35%. The flow rate was kept at 0.5 mL/min. The column oven was set at 30 °C and the injection volume was 10 μL.
The mass spectrometer was operated in the positive ion electrospray mode with multiple reaction monitoring (MRM). The optimal MS parameters were set at the following parameters: a desolvation gas temperature of 450 °C, desolvation gas flow of 10 L/min, a nebulizer gas of 40 psi and a capillary voltage of 4000 V. The mass spectrometry conditions of AA I, AA II, AA C, AA D, 7-OH AA I and IS are summarized in Additional file 1: Table S1.
The rats were randomly divided into 6 groups (low, middle and high doses of AF and HAF; n = 6). After a week of acclimation, the animals were fasted for 12 h with free access to water. Then, AF and HAF extracts were administered to the rats. The extracts were suspended in 0.5% CMC–Na solution, and the oral doses (according to AA I in the extracts) were 3.0 mg/kg, 8.0 mg/kg and 15.0 mg/kg, respectively.
Blood samples were collected from the ocular vein using dried heparinized tubes at 0, 0.083, 0.17, 0.33, 0.50, 0.67, 0.83, 1, 2, 4, 6, 8, 10, 12 and 24 h from the start. The animals received fluid replacement (sterile isotonic saline) after every two samplings since the fifth collecting. The samples were then immediately centrifuged at 3100 × g for 10 min. The plasma obtained was frozen and stored at –20 °C until analysis.
All statistical analyses were performed using the SPSS 11.0 software (Chicago, USA). P values <0.05 were considered statistically significant. Pharmacokinetic analysis was performed using the proprietary DAS 3.0 software (Mathematical Pharmacology Professional Committee of China, Shanghai, China).
After the oral administration of AF and HAF extracts, rat plasma samples were prepared and analyzed as described above. Five main AAs can be detected in rat blood with the proposed HPLC-MS/MS method. The mean pharmacokinetic parameters of five AAs in AF and HAF are summarized in Tables 4, 5 and Additional files 5, 6, 7: Tables S4-S6. The maximum concentration (C max) was the experimentally-observed value. The other pharmacokinetic parameters of the five analytes were fitted by DAS 3.0 software.

[2] = Stability of AAs in rat plasma (QC samples, HPLC-MS/MS); assay type: in vitro ADME; conditions: n = 5; for Short-term stability (RSD/%): fresh rat plasma at room temperature for 24 h before sample preparation; for Post-preparation stability (RSD/%): prepared rat plasma samples at room temperature for 24 h; for Long-term stability (RSD/%): rat plasma stored at –20 °C for 14 days; for Freeze-thaw stability (RSD/%): rat plasma, three freeze-thaw cycles (–20 °C 24 h, thawed at room temperature)
Procedure: The QC samples were assayed under several different conditions to evaluate the stability of AAs in rat plasma. The freeze-thaw stability of the analyte was determined over three freeze-thaw cycles. In each freeze-thaw cycle, the samples were frozen and stored at –20 °C for 24 h, then thawed at room temperature. To evaluate the long-term stability of AAs, the plasma samples were stored at –20 °C for 14 days. For the short-term stability, fresh plasma samples were kept at room temperature for 24 h before the sample preparation. After keeping the samples at room temperature for 24 h, post-preparation stability was tested. Stability was evaluated by comparing the mean concentration of the stored samples with the mean concentration of those prepared freshly. The stability data were acceptable when the bias was within ±15% of the actual value.

[3] = 3 mg/kg, AF extract, low dose (3.0 mg/kg as AA I), analyte dose mg/kg: AA I 3.0, AA II 0.21, AA C 1.42, AA D 1.60, 7-OH AA I 2.33, n = 6
[4] = 3 mg/kg, HAF extract, low dose (3.0 mg/kg as AA I), analyte dose mg/kg: AA I 3.0, AA II 0.26, AA C 1.53, AA D 1.51, 7-OH AA I 2.48, n = 6
[5] = 8 mg/kg, AF extract, mid dose (8.0 mg/kg as AA I), analyte dose mg/kg: AA I 8.0, AA II 0.56, AA C 3.78, AA D 4.26, 7-OH AA I 6.22, n = 6
[6] = 8 mg/kg, HAF extract, mid dose (8.0 mg/kg as AA I), analyte dose mg/kg: AA I 8.0, AA II 0.69, AA C 4.09, AA D 4.03, 7-OH AA I 6.62, n = 6
[7] = 15 mg/kg, AF extract, high dose (15.0 mg/kg as AA I), analyte dose mg/kg: AA I 15.0, AA II 1.05, AA C 7.09, AA D 8.00, 7-OH AA I 11.66, n = 6
[8] = 15 mg/kg, HAF extract, high dose (15.0 mg/kg as AA I), analyte dose mg/kg: AA I 15.0, AA II 1.29, AA C 7.66, AA D 7.56, 7-OH AA I 12.41, n = 6
[9] = high QC conc ng/mL: AA I 1830, AA II 3200, AA C 2980, AA D 3680, 7-OH AA I 3280
[10] = low QC conc ng/mL: AA I 1.83, AA II 8.00, AA C 186.3, AA D 36.8, 7-OH AA I 82.0
[11] = middle QC conc ng/mL: AA I 457.5, AA II 400, AA C 372.5, AA D 460, 7-OH AA I 410

COc1cc(O)cc2c1cc([N+](=O)[O-])c1c(C(=O)O)cc3c(c12)OCO3 [AA D]
AUC(0-inf) [1, 3]: 194 ng·h/mL | Cmax [1, 3]: 78.5 ng/mL | Tmax [1, 3]: 0.56 h | CL/F ([1]; 3 mg/kg, AF extract, low dose (3.0 mg/kg as AA I), analyte dose mg/kg: AA I 3.0, AA II 0.21, AA C 1.42, AA D 1.60, 7-OH AA I 2.33, n = 6, read-out: CLz/F (converted)): 168 mL/min/kg | Vd/F ([1]; 3 mg/kg, AF extract, low dose (3.0 mg/kg as AA I), analyte dose mg/kg: AA I 3.0, AA II 0.21, AA C 1.42, AA D 1.60, 7-OH AA I 2.33, n = 6, read-out: Vz/F): 35.7 L/kg | half-life ([1]; 3 mg/kg, AF extract, low dose (3.0 mg/kg as AA I), analyte dose mg/kg: AA I 3.0, AA II 0.21, AA C 1.42, AA D 1.60, 7-OH AA I 2.33, n = 6, read-out: t 1/2z (converted)): 2.45 h | AUC(0-inf) [1, 4]: 179 ng·h/mL | Cmax [1, 4]: 58.6 ng/mL | Tmax [1, 4]: 0.78 h | CL/F ([1]; 3 mg/kg, HAF extract, low dose (3.0 mg/kg as AA I), analyte dose mg/kg: AA I 3.0, AA II 0.26, AA C 1.53, AA D 1.51, 7-OH AA I 2.48, n = 6, read-out: CLz/F (converted)): 158 mL/min/kg | Vd/F ([1]; 3 mg/kg, HAF extract, low dose (3.0 mg/kg as AA I), analyte dose mg/kg: AA I 3.0, AA II 0.26, AA C 1.53, AA D 1.51, 7-OH AA I 2.48, n = 6, read-out: Vz/F): 30.6 L/kg | half-life ([1]; 3 mg/kg, HAF extract, low dose (3.0 mg/kg as AA I), analyte dose mg/kg: AA I 3.0, AA II 0.26, AA C 1.53, AA D 1.51, 7-OH AA I 2.48, n = 6, read-out: t 1/2z (converted)): 2.05 h | AUC(0-inf) [1, 5]: 402 ng·h/mL | Cmax [1, 5]: 126 ng/mL | Tmax [1, 5]: 0.56 h | CL/F ([1]; 8 mg/kg, AF extract, mid dose (8.0 mg/kg as AA I), analyte dose mg/kg: AA I 8.0, AA II 0.56, AA C 3.78, AA D 4.26, 7-OH AA I 6.22, n = 6, read-out: CLz/F (converted)): 359 mL/min/kg | Vd/F ([1]; 8 mg/kg, AF extract, mid dose (8.0 mg/kg as AA I), analyte dose mg/kg: AA I 8.0, AA II 0.56, AA C 3.78, AA D 4.26, 7-OH AA I 6.22, n = 6, read-out: Vz/F): 75.7 L/kg | half-life ([1]; 8 mg/kg, AF extract, mid dose (8.0 mg/kg as AA I), analyte dose mg/kg: AA I 8.0, AA II 0.56, AA C 3.78, AA D 4.26, 7-OH AA I 6.22, n = 6, read-out: t 1/2z (converted)): 2.43 h | AUC(0-inf) [1, 6]: 323 ng·h/mL | Cmax [1, 6]: 89.2 ng/mL | Tmax [1, 6]: 0.75 h | CL/F ([1]; 8 mg/kg, HAF extract, mid dose (8.0 mg/kg as AA I), analyte dose mg/kg: AA I 8.0, AA II 0.69, AA C 4.09, AA D 4.03, 7-OH AA I 6.62, n = 6, read-out: CLz/F (converted)): 190 mL/min/kg | Vd/F ([1]; 8 mg/kg, HAF extract, mid dose (8.0 mg/kg as AA I), analyte dose mg/kg: AA I 8.0, AA II 0.69, AA C 4.09, AA D 4.03, 7-OH AA I 6.62, n = 6, read-out: Vz/F): 37.8 L/kg | half-life ([1]; 8 mg/kg, HAF extract, mid dose (8.0 mg/kg as AA I), analyte dose mg/kg: AA I 8.0, AA II 0.69, AA C 4.09, AA D 4.03, 7-OH AA I 6.62, n = 6, read-out: t 1/2z (converted)): 2.3 h | AUC(0-inf) [1, 7]: 960 ng·h/mL | Cmax [1, 7]: 155 ng/mL | Tmax [1, 7]: 0.64 h | CL/F ([1]; 15 mg/kg, AF extract, high dose (15.0 mg/kg as AA I), analyte dose mg/kg: AA I 15.0, AA II 1.05, AA C 7.09, AA D 8.00, 7-OH AA I 11.66, n = 6, read-out: CLz/F (converted)): 560 mL/min/kg | Vd/F ([1]; 15 mg/kg, AF extract, high dose (15.0 mg/kg as AA I), analyte dose mg/kg: AA I 15.0, AA II 1.05, AA C 7.09, AA D 8.00, 7-OH AA I 11.66, n = 6, read-out: Vz/F): 153 L/kg | half-life ([1]; 15 mg/kg, AF extract, high dose (15.0 mg/kg as AA I), analyte dose mg/kg: AA I 15.0, AA II 1.05, AA C 7.09, AA D 8.00, 7-OH AA I 11.66, n = 6, read-out: t 1/2z (converted)): 2.89 h | AUC(0-inf) [1, 8]: 590 ng·h/mL | Cmax [1, 8]: 148 ng/mL | Tmax [1, 8]: 0.63 h | CL/F ([1]; 15 mg/kg, HAF extract, high dose (15.0 mg/kg as AA I), analyte dose mg/kg: AA I 15.0, AA II 1.29, AA C 7.66, AA D 7.56, 7-OH AA I 12.41, n = 6, read-out: CLz/F (converted)): 206 mL/min/kg | Vd/F ([1]; 15 mg/kg, HAF extract, high dose (15.0 mg/kg as AA I), analyte dose mg/kg: AA I 15.0, AA II 1.29, AA C 7.66, AA D 7.56, 7-OH AA I 12.41, n = 6, read-out: Vz/F): 47.9 L/kg | half-life ([1]; 15 mg/kg, HAF extract, high dose (15.0 mg/kg as AA I), analyte dose mg/kg: AA I 15.0, AA II 1.29, AA C 7.66, AA D 7.56, 7-OH AA I 12.41, n = 6, read-out: t 1/2z (converted)): 2.4 h | Short-term stability (RSD/%) [2, 9]: 8.6% | Short-term stability (RSD/%) [2, 10]: 5.0% | Short-term stability (RSD/%) [2, 11]: 11.7% | Post-preparation stability (RSD/%) [2, 9]: 2.8% | Post-preparation stability (RSD/%) [2, 10]: 4.5% | Post-preparation stability (RSD/%) [2, 11]: 3.1% | Long-term stability (RSD/%) [2, 9]: 12.7% | Long-term stability (RSD/%) [2, 10]: 5.2% | Long-term stability (RSD/%) [2, 11]: 2.5% | Freeze-thaw stability (RSD/%) [2, 9]: 14.3% | Freeze-thaw stability (RSD/%) [2, 10]: 4.8% | Freeze-thaw stability (RSD/%) [2, 11]: 8.4%
